According to patent US11926580B2, “Hydropersulfide precursors” (THE JOHNS HOPKINS UNIVERSITY, priority 2018, dated 2024):
“And” between values parts separate entries of the source, which are not always exact repeats. Identical values can stand only once.

Tests used:
[1] = UPLC-MS analysis of RSSH trapping with N-ethylmaleimide; assay type: physicochemical; details: UPLC-MS
Procedure: FIGS. 2a and 2b provide graphs of (a) UPLC-MS chromatograms of RSSH generation from 4d (200 μM) in the presence of NEM (4 mM) incubated in pH 7.4 ammonium bicarbonate (100 mM) with DTPA (100 μM) at 37° C. A peak at 3.7 min corresponding to N-ethylmaleamic acid (NEMA), derived from NEM hydrolysis, was observed under these conditions (see SI); (b) MS spectrum (ESI+ mode) of the product eluting at 5.06 min corresponding to 5a with m/z 349.0885 (expected m/z 349.0886).
FIG. 5 provides a graph of UPLC-MS chromatograms of RSSH generation from compound 1 (1 mM) in the presence of NEM (5 mM) incubated in pH 7.4 ammonium bicarbonate buffer containing DTPA (100 μM) for 30 min at 37° C. The asterisk indicates the methyl ester analogue of dialkyl trisulfide 2, which was also formed due to the presence of minor amount of methyl ester analogue of 1. A peak at 3.7 min corresponding to N-ethylmaleamic acid (NEMA), derived from NEM hydrolysis, was observed under these conditions.
RSSH trapping in the presence of N-ethylmaleimide (NEM) was carried out with a Waters Acquity/Xevo-G2 UPLC-MS system equipped with an ACQUITY UPLC BEH C18 column (2.1 mm×50 mm, 1.7 μm). Typically, RSSH precursor (1 eq) was incubated with NEM (5 to 20 eq) in freshly prepared pH 7 4 ammonium bicarbonate buffer (100 mM) containing DTPA (100 μM) at 37° C. An aliquot of the reaction mixture (300 μL) was withdrawn at specified time points, quenched with 0.25% formic acid (300 μL), and filtered through a 0.22 μm filter. The samples were then loaded into vials in an autosampler maintained at 4° C. and analyzed using UPLC-MS as follows: Mobile phase: 0-1 min 90% water+0% ACN+10% formic acid (0.1%); 1-7.5 min gradient up to 10% water+80% ACN+10% formic acid (0.1%); 7.5-8.4 min 10% water+80% ACN+10% formic acid (0.1%); 8.4-8.5 min gradient up to 90% water+0% ACN+10% formic acid (0.1%), 8.5-10 min 90% water+0% ACN+10% formic acid (0.1%). Flow rate=0.3 mL min^−1. The mass signals for products of RSSH trapping with NEM were obtained via deconvolution using MassLynx 4.1 software.
To a solution of NEM (5 mM) in pH 7 4 ammonium bicarbonate (100 mM) with DTPA (100 μM) in a 20-mL scintillation vial, hydropersulfide precursor 1 (1 mM, total reaction volume 3 mL) was added. The resulting mixture was incubated at 37° C. for 30 min. An aliquot of 300 μL reaction mixture was withdrawn, quenched with 300 μL of formic acid (0.25%) and analyzed using UPLC-MS.

[2] = Kinetics of RSSH generation by 1H NMR with NEM trapping; assay type: physicochemical; details: 10% D2O
Procedure: FIGS. 3a and 3b provide graphs of (a) Stacked ^1H NMR spectra showing the decomposition of precursor 4d (1 mM) with NEM (20 mM) in 10% D2O, phosphate buffer (PB), pH 7.4 at 37° C. to produce RSS-NEM adduct 5a; Precursor 4d was introduced to a solution of NEM in PB at t=0 min and following equilibration and shimming, the first 1H NMR spectrum was obtained after 6 min.; and (b) The kinetics of decomposition of 4d (circles represent the —CH3 protons (Ha) of the precursor) and formation of 5a (squares represent the diasterotopic protons (Hb) of the succinimide ring of the two product diastereomers).
Next, ^1H NMR spectroscopy was used to monitor the kinetics of RSSH generation from 4d by trapping with NEM in 10% D2O, pH 7.4 buffer containing DMSO as an internal standard at 37° C. An increase in the peak intensity attributed to one of the diasterotopic protons of the succinimide ring of the two product diastereomers (Hb, δ2.99-2.91 ppm) was observed (FIG. 3a). The other diasterotopic proton (Hc, δ3.30-3.21 ppm) overlaps with N-ethylmaleamic acid (NEMA), a product derived from NEM hydrolysis. Similarly, the intensity of two methyl group protons of precursor 4d (δ1.44 and 1.41 ppm) decreased as four methyl group protons of the two diastereomers of 5a (Ha, δ1.40, 1.37 ppm and 1.40, 1.34 ppm) increased, supporting the clean conversion of 4d to 5a. The ^1H NMR peak assignments for 5a are consistent with the RSS-NEM adduct formed during S-methoxycarbonyl penicillamine disulfide (MCPD) decomposition (Scheme 1, eq. 3) in the presence of NEM.
All starting materials were of reagent grade and used without further purification. N-acetyl-D-penicillamine, N-ethylmaleimide, N-ethylmaleamic acid, and phenylcyanamide were purchased from Sigma-Aldrich and used without further purification. Thiourea and N-substituted thioureas were purchased from Alfa Aesar and Oakwood Chemicals. Deuterated solvents (Cambridge Isotope Laboratories) were used for NMR spectroscopic analyses. NMR spectra were obtained on a 400 MHz FT-NMR spectrometer. All chemical shifts are reported in parts per million (ppm) relative to residual CHCl3 (7.26 ppm for ^1H, 77.2 ppm for ^13C), residual H2O (4.79 ppm for ^1H), residual DMSO (2.50 ppm for ^1H, 39.5 for ^13C), or residual MeOH (3.31 ppm for ^1H, 49.2 ppm for ^13C). The kinetics of RSSH generation were measured using a Varian Inova 800 MHz spectrometer. UPLC-MS analysis was carried out with a Waters Acquity/Xevo-G2 UPLC-MS system equipped with an ACQUITY UPLC BEH C18 column (2.1 mm×50 mm, 1.7 μm). The mass signals for products of hydropersulfide trapping with NEM were obtained via deconvolution using MassLynx 4.1 software. The pH measurements were performed using a Fisher Scientific Accumet AB15 pH-meter. Analytical thin layer chromatography (TLC) was performed on Sigma-Aldrich silica gel on TLC A1 foils with fluorescent indicator F254 plates. Visualization was accomplished with UV light (254 nm) or staining with KMnO4. Flash column chromatography was performed using SiliaFlash P60 (230-400 mesh) silica gel. Melting points were recorded using MEL-TEMP® capillary melting point apparatus and are uncorrected.

SMILES: CC(=O)NC(C(=O)O)C(C)(C)SSC(=N)Nc1ccccc1.Cl (stereo not drawn) [Precursor 4d, ((1-acetamido-1-carboxy-2-methylpropan-2-yl)disulfaneyl)(phenylamino)methaniminium chloride]
- RSSH generation (RSS-NEM adduct formation) ([1]; NEM trap, pH 7.4 buffer, 37° C.): clean conversion of 4d to the RSS-NEM adduct 5a
- phenyl cyanamide yield from precursor decomposition ([1]; NEM, pH 7.4, 37° C.): 94%
- k, single-exponential fit of precursor decomposition and 5a formation ([2]; 4d 1 mM, NEM 20 mM, phosphate buffer pH 7.4, 37° C.): 0.12 min⁻¹
- half-life at 1 mM ([2]; NEM, pH 7.4 buffer, 37° C., read-out: half-life of precursor): 5.6 min
- t1//2 (mm) ([2]; precursor 1 mM, NEM 20 mM, pH 7.4 phosphate buffer, 37° C.): 5.6 ± 0.3 min
- Hydropersulfide Yield (%) (RSS-NEM adduct) ([2]; precursor 1 mM, NEM 20 mM, pH 7.4 phosphate buffer, 37° C., based upon % precursor consumed): 96% and 96 ± 1%
